{"source": "patent US12357598B2", "about": "“Treatment of neurodevelopmental disorders” (THE REGENTS OF THE UNIVERSITY OF CALIFORNIA, priority 2018, dated 2025)", "type_in_all_cases": "in vivo, mouse", "key": {"ddY mice [1]": {"system": "ddY mice", "experiment": "Measurement of NMDAR-related amino acids in plasma and brain after maternal glyphosate exposure", "details": "juvenile offspring (P28)", "experimental": "Measurement of amino acids. On P28, mice were deeply anesthetized with isoflurane and plasma was collected. Subsequently, prefrontal cortex (PFC), hippocampus and striatum were quickly dissected on ice from whole brain. The dissected tissues were weighed and stored at −80° C. until assayed. Levels of amino acids (glutamate, glutamine, glycine, L-serine, D-serine, GABA) were measured using high performance liquid chromatography system (Shimadzu Corporation, Kyoto, Japan), as reported previously (12,18,19)."}, "parvalbumin (PV)": {"system": "parvalbumin (PV)", "experiment": "PV-immunohistochemistry in mPFC after maternal glyphosate exposure", "details": "juvenile offspring of maternal glyphosate exposure vs water treated group", "experimental": "PV-immunohistochemistry. Immunohistochemistry of PV was performed as reported previously (7,13,16,17). Mice were anesthetized with 5% isoflurane and sodium pentobarbital (50 mg/kg), and perfused transcardially with 10 mL of saline, followed by 30 mL of ice-cold 4% paraformaldehyde in 0.1M phosphate buffer (pH 7.4). Brains were removed from the skulls and post fixed overnight at 4° C. in the same fixative. For the immunohistochemical analysis, 50 μm-thick serial, coronal sections of brain tissue were cut in ice-cold 0.01M phosphate buffered saline (pH 7.4) using a vibrating blade microtome (VT1000s, Leica Microsystems, Tokyo, Japan). Mounted on gelatinized slides brain sections were washed by PBS for three times and then blocked in PBS containing 0.3% Triton X-100 (PBST) and 3% normal serum for 1 h at room temperature. The samples were then incubated for 24 h at 4° C. with […] polyclonal anti-parvalbumin (PV) antibody (1:100, abcam, ab11427) in PBST with 1% normal serum. After that the sections were washed three times in PBS and then incubated for 2 h in room temperature with Alexa Fluor 488 Polyclonal Antibody (1:1000, Invitrogen, A11094). […] The PV-immunofluorescent-positive cells in the inflalimbic (IL) and prelimbic (PrL) regions (0.05 mm^2) of mPFC was analyzed using a fluorescence microscope with a CCD camera (Olympus IX70, Tokyo, Japan) and the SCION IMAGE software package. […]"}, "sEH": {"system": "sEH", "experiment": "Western blot of sEH in brain regions after maternal glyphosate exposure", "excerpt": "Collection of blood and brain samples and oxylipin analysis. Water or 0.095% glyphosate was given to pregnant mice from E5 to P21, as described above. The male offspring were separated from their mothers at weaning (P21). At juvenile (P28) stage, mice were deeply anesthetized with isoflurane and plasma was collected. Subsequently, brains were removed from the skulls. For Western blot analysis, brain regions such as prefrontal cortex (PFC), hippocampus, and striatum, were dissected from brain on ice. The samples were stored at −80° C. before assay. For oxylipin analysis, plasma was collected after isoflurane anesthesia at juvenile (P28) stage. Subsequently, PFC, hippocampus, and striatum were dissected from brain on ice, and the samples were stored at −80° C. before assay. […]\nWestern blot analysis. […] 50 μg of protein were measured using the DC protein assay kit (Bio-Rad), and incubated for 5 min at 95° C., with an equal volume of 125 mM Tris-HCl, pH6.8, 20% glycerol, 0.1% bromophenol blue, 10% β-mercaptoethanol, 4% sodium dodecyl sulfate, and subjected to sodium dodecyl sulfate polyacrylamide gel electrophoresis, using 7.5% or AnyKD mini-gels (Mini-PROTEAN® TGX™ Precast Gel; Bio-Rad, CA, USA). […] After final three washes with TBST, bands were detected using enhanced chemiluminescence (ECL) prime Western Blotting Detection system (GE Healthcare Bioscience). […]"}, "gut microbiota": {"system": "gut microbiota", "experiment": "16S rRNA analysis of fecal samples after maternal glyphosate exposure", "details": "juvenile offspring (P28)", "experimental": "16S rRNA analysis and measurement of short-chain fluty acids of fecal samples. On P28, we collected fresh fecal samples from each mouse at around 10:00 in order to avoid circadian effects on the microbiome. The fecal samples were put into a sterilized screw cap microtube immediately after defecation, and these samples were stored at −80° C. until use. DNA extraction from mouse feces and 16S rRNA analysis of fecal samples were performed by MyMetagenome Co, Ltd. (Tokyo, Japan), as reported previously (20,21)."}, "ddY mice [2]": {"system": "ddY mice", "experiment": "Locomotion, offspring after maternal glyphosate exposure", "details": "juvenile offspring, maternal 0.095% glyphosate vs water", "experimental": "Locomotor Activity: Both horizontal and rearing activity were monitored by an infrared ray passive sensor system (SCANET-SV10, Melquest Ltd., Toyama, Japan), and activity was integrated every minute. Individual mice were placed in activity chambers and allowed 1 hour of free exploration as spontaneous activity."}}}
{"molecule": "O=C(O)CNCP(=O)(O)O", "note": "[glyphosate]", "values": [{"measurement": "D-Serine level", "setting": "ddY mice [1]; PFC", "result": "0.313 ± 0.010", "unit": "nmol/mg tissue"}, {"measurement": "GABA level", "setting": "ddY mice [1]; PFC", "result": "2.060 ± 0.058", "unit": "nmol/mg tissue"}, {"measurement": "Glutamate level", "setting": "ddY mice [1]; PFC", "result": "10.392 ± 0.377", "unit": "nmol/mg tissue"}, {"measurement": "Glutamine level", "setting": "ddY mice [1]; PFC", "result": "5.053 ± 0.243", "unit": "nmol/mg tissue"}, {"measurement": "Glycine level", "setting": "ddY mice [1]; PFC", "result": "0.705 ± 0.023", "unit": "nmol/mg tissue"}, {"measurement": "L-Serine level", "setting": "ddY mice [1]; PFC", "result": "0.622 ± 0.016", "unit": "nmol/mg tissue"}, {"measurement": "D-Serine level", "setting": "ddY mice [1]; hippocampus", "result": "0.259 ± 0.017", "unit": "nmol/mg tissue"}, {"measurement": "GABA level", "setting": "ddY mice [1]; hippocampus", "result": "2.469 ± 0.097", "unit": "nmol/mg tissue"}, {"measurement": "Glutamate level", "setting": "ddY mice [1]; hippocampus", "result": "9.350 ± 0.282", "unit": "nmol/mg tissue"}, {"measurement": "Glutamine level", "setting": "ddY mice [1]; hippocampus", "result": "4.765 ± 0.137", "unit": "nmol/mg tissue"}, {"measurement": "Glycine level", "setting": "ddY mice [1]; hippocampus", "result": "0.725 ± 0.030", "unit": "nmol/mg tissue"}, {"measurement": "L-Serine level", "setting": "ddY mice [1]; hippocampus", "result": "0.662 ± 0.037", "unit": "nmol/mg tissue"}, {"measurement": "D-Serine level", "setting": "ddY mice [1]; plasma", "result": "7.522 ± 0.578", "unit": "nmol/mL"}, {"measurement": "Glutamate level", "setting": "ddY mice [1]; plasma", "result": "38.003 ± 1.974", "unit": "nmol/mL"}, {"measurement": "Glutamine level", "setting": "ddY mice [1]; plasma", "result": "496.268 ± 15.748", "unit": "nmol/mL"}, {"measurement": "Glycine level", "setting": "ddY mice [1]; plasma", "result": "354.185 ± 9.806", "unit": "nmol/mL"}, {"measurement": "L-Serine level", "setting": "ddY mice [1]; plasma", "result": "144.824 ± 4.622", "unit": "nmol/mL"}, {"measurement": "D-Serine level", "setting": "ddY mice [1]; striatum", "result": "0.281 ± 0.010", "unit": "nmol/mg tissue"}, {"measurement": "GABA level", "setting": "ddY mice [1]; striatum", "result": "3.076 ± 0.151", "unit": "nmol/mg tissue"}, {"measurement": "Glutamate level", "setting": "ddY mice [1]; striatum", "result": "7.745 ± 0.141", "unit": "nmol/mg tissue"}, {"measurement": "Glutamine level", "setting": "ddY mice [1]; striatum", "result": "5.735 ± 0.319", "unit": "nmol/mg tissue"}, {"measurement": "Glycine level", "setting": "ddY mice [1]; striatum", "result": "0.755 ± 0.039", "unit": "nmol/mg tissue"}, {"measurement": "L-Serine level", "setting": "ddY mice [1]; striatum", "result": "0.715 ± 0.032", "unit": "nmol/mg tissue"}, {"measurement": "PV-immunoreactivity in the prelimbic (PrL) of medial PFC", "setting": "parvalbumin (PV)", "result": "significantly lower"}, {"measurement": "protein levels of sEH in the PFC, hippocampus, and striatum", "setting": "sEH; juvenile offspring (P28) after maternal glyphosate exposure vs water", "result": "significantly higher"}, {"measurement": "protein levels of sEH in the PFC and striatum of mothers", "setting": "sEH; mothers treated with glyphosate vs water-treated mice", "result": "significantly higher"}, {"measurement": "composition of gut microbiota", "setting": "gut microbiota; maternal glyphosate exposure", "result": "abnormal composition"}, {"measurement": "relative abundance of Clostridium sp. Clone-1, Enterorhabdus muris, Clostridium sp. Clone-46, and Butyricimonas virosa", "setting": "gut microbiota; vs water-treated group", "result": "significantly higher"}, {"measurement": "relative abundance of Eubacterium plexicaudatum, Lachnospiraceae bacterium 538, and Clostridium tertium", "setting": "gut microbiota; vs water-treated group", "result": "significantly lower"}, {"measurement": "locomotion", "setting": "ddY mice [2]", "result": "not different"}]}
